From US6964780B1, “Controlled-release pharmaceutical formulations” (Pfizer Inc., priority 1998, dated 2005)
Counter-ions that a name gives are not always drawn.

Assay: solubility of sildenafil citrate as a function of pH
Assay type: physicochemical
Conditions: at pH values greater than 6
Source text: Matrix formulations according to the present invention may contain a buffering agent. This is particularly useful when the formulation contains sildenafil citrate. A buffering agent of particular interest is aspartic acid. When it forms part of a matrix tablet, aspartic acid acts as a buffering agent to maintain a low pH at the surface of the tablet. […] When present, aspartic acid will typically make up 15–30% by weight of the formulation.

solubility: low solubility
Structure (SMILES): CCCc1nn(C)c2c(=O)[nH]c(-c3cc(S(=O)(=O)N4CCN(C)CC4)ccc3OCC)nc12 [sildenafil citrate, Sildenafil citrate]
